According to patent US10166271B2, “Methods for promoting hair growth” (THE REGENTS OF THE UNIVERSITY OF CALIFORNIA, priority 2006, dated 2019):

Legend:
CRF-OE mice = assay type: in vivo; conditions: for Treated mice that died / did not survive / Hair growth: adult female CRF-OE mice; for Treated mice that died / did not survive: groups of five, minoxidil: a few days after the first injection, NBI 27914: within four weeks following the final injection; for Hair growth: 2 and 4 weeks (minoxidil) or four weeks (NBI 27914, surviving mouse) after the final injection
Excerpt: The NBI 27914 administration regimen was as previously described by Martinez et al. (J. Pharmacol. Exp. Ther., 301:611-617, 2002).

young CRF-OE mice = conditions: young CRF-OE mice; over a two-month period
Experimental: Each subcutaneous injection is given in a single puncture located along or about the midline of the back. Age-matched CRF-OE mice similarly injected with 0.1 ml vehicle alone are used as negative controls. Astressin B fragments are as described in Example 8. Alternatively, topical astressin B can be applied to the mouse's back, for example 0.05 mg, 0.5 mg, 5 mg, 50 mg, or 500 mg of an astressin B fragment once daily for at least five consecutive days
Hair growth (or hair loss) is assessed using the hair growth scale described in Example 1. The general conditions of treated and control mice, such as weight, back skin thickness, hair luster, skin wounds and indurations, are noted.

[1] = system: male patients between 18 and 41 years of age; post-menopausal women; conditions: cited from earlier work
[2] = system: male and female androgenetic patients; conditions: cited from earlier work
[3] = oral 1 mg/day for 2 years, male patients 18-41 years

Structure (SMILES)	Treated mice that died / did not survive (CRF-OE mice)	Hair growth (CRF-OE mice)	Loss of hair compared with astressin B-treated mice (young CRF-OE mice)	Side effects ([1]; human, in vivo)	Cases in which further hair loss was prevented [1, 3] [%]	Cases with visible hair growth [1, 3] [%]	Efficacy of similar treatment regimen ([1]; post-menopausal women)	Treated mice with induced patches of pigmentation (CRF-OE mice; sc 1% in 0.1 ml once per day x 10 days, by two weeks after the final injection, still-living mice)	Side effects ([2]; human, in vivo)	Patients with fine hair growth (fraction) ([2]; two percent topical)	Patients with no hair growth (fraction) ([2]; two percent topical)	Patients with visible hair growth (fraction) ([2]; two percent topical)
CCCN(CC1CC1)c1nc(C)nc(Nc2c(Cl)cc(Cl)cc2Cl)c1Cl [NBI 27914]	4 out of 5	small areas of patchy hair growth	substantially more loss of hair									
CC(C)(C)NC(=O)[C@H]1CC[C@H]2[C@@H]3CC[C@H]4NC(=O)C=C[C@]4(C)[C@H]3CC[C@]12C [finasteride]				lack of libido, lack of potency, and mild reduction in semen	83	66	ineffective					
Nc1cc(N2CCCCC2)nc(N)[n+]1[O-] [minoxidil]	one treated mouse died	Moderate hair growth in the pigmented patches	substantially more loss of hair					3 of the 4	scalp irritation and increased facial hair	approximately ⅓	approximately ⅓	approximately ⅓
